{"source": "patent US6372737B1", "about": "(priority 1996, dated 2002)", "type_in_all_cases": "in vivo", "key": {"Leptosphaeria nodorum [1]": {"test_system": "Leptosphaeria nodorum", "assay": "Leptosphaeria nodorum test (wheat)/protective", "conditions": "Parastagonospora nodorum, 240 h, application rate 6.25 g/ha, protective, 10 days after inoculation, read-out: Efficacy in %", "method": "(§1) Solvent: 25 parts by weight of N,N-dimethylacetamide\n(§2) Emulsifier: 0.6 part by weight of alkylaryl polyglycol ether\n(§3) To produce a suitable preparation of active compound, 1 part by weight of active compound or active compound combination is mixed with the stated amounts of solvent and emulsifier, and the concentrate is diluted with water to the desired concentration.\n(§4) To test for protective activity, young plants are sprayed with the preparation of active compound at the stated application rate. After the spray coating has dried on, the plants are sprayed with a spore suspension of Leptosphaeria nodorum. The plants remain in an incubation cabin at 20EC and 100% relative atmospheric humidity for 48 hours.\nThe plants are placed in a greenhouse at a temperature of about 15° C. and a relative atmospheric humidity of 80%.\n(§5) Evaluation is carried out 10 days after the inoculation. 0% means an efficacy which corresponds to that of the control, whereas an efficacy of 100% means that no infection is observed."}, "[2]": {"test_system": "Erysiphe graminis f.sp. hordei", "assay": "Erysiphe test (barley)/curative", "conditions": "curative, 7 days after inoculation", "method": "as §1, §2, §3\nTo test for curative activity, young plants are dusted with spores of Erysiphe graminis f.sp. hordei. 48 hours after the inoculation, the plants are sprayed with the preparation of active compound at the stated application rate.\n(§6) The plants are placed in a greenhouse at a temperature of about 20° C. and a relative atmospheric humidity of about 80%, in order to promote the development of mildew pustules.\n(§7) Evaluation is carried out 7 days after the inoculation. 0% means an efficacy which corresponds to that of the control, whereas an efficacy of 100% means that no infection is observed."}, "Puccinia recondita [3]": {"test_system": "Puccinia recondita", "assay": "Puccinia test (wheat)/protective", "conditions": "Puccinia recondita, 240 h, application rate 6.25 g/ha, protective, 10 days after inoculation, read-out: Efficacy in %", "method": "as §1, §2, §3\nas §4, with “conidia” for “spore”, “Puccinia recondita.” for “Leptosphaeria nodorum.”, “20° C.” for “20EC”\nThe plants are then placed in a greenhouse at a temperature of about 20° C. and a relative atmospheric humidity of 80%, in order to promote the development of rust pustules.\nas §5"}, "[4]": {"test_system": "Erysiphe graminis fsp. tritici", "assay": "Erysiphe test (wheat)/protective", "conditions": "protective, 7 days after inoculation", "method": "as §1, §2, §3\nTo test for protective activity, young plants are sprayed with the preparation of active compound at the stated application rate.\nAfter the spray coating has dried on, the plants are dusted with spores of Erysiphe graminis fsp. tritici.\nas §6, §7"}, "[5]": {"test_system": "Erysiphe graminis f.sp. tritici", "assay": "Erysiphe test (wheat)/curative", "conditions": "curative, 7 days after inoculation", "method": "as §1, §2, §3\nTo test for curative activity, young plants are dusted with spores of Erysiphe graminis f.sp. tritici. 48 hours after the inoculation, the plants are sprayed with the preparation of active compound at the stated application rate.\nas §6, §7"}, "Sphaerotheca fuliginea": {"test_system": "Sphaerotheca fuliginea", "assay": "Sphaerotheca test (cucumber)/protective", "conditions": "Podosphaera fuliginea, 240 h, application rate 2.5 g/ha, protective, 10 days after inoculation, read-out: % efficacy", "method": "To test for protective activity, young plants are sprayed with the commercial active compound preparation at the stated application rate. After the spray coating has dried on, the plants are inoculated with an aqueous spore suspension of Sphaerotheca fuliginea. The plants then remain in a greenhouse at about 23° C. and about 70% relative atmospheric humidity.\nEvaluation is carried out 10 days after the inoculation. 0% means an efficacy corresponding to that of the control, and an efficacy of 100% means that no infection is observed."}, "Puccinia recondita [6]": {"test_system": "Puccinia recondita", "assay": "Puccinia test (wheat)/curative", "conditions": "application rate 6.25 g/ha, curative, 10 days after inoculation", "method": "as §1, §2, §3\n(§8) To test for curative activity, young plants are sprayed with a conidia suspension of Puccinia recondita. The plants remain in an incubation cabin at 20° C. and 100% relative atmospheric humidity for 48 hours. The plants are subsequently sprayed with the preparation of active compound at the stated application rate.\nThe plants are placed in a greenhouse at a temperature of about 20° C. and a relative atmospheric humidity of about 80%, in order to promote the development of rust pustules.\nas §5"}, "Phytophthora infestans": {"test_system": "Phytophthora infestans", "assay": "whole plant or invertebrate", "conditions": "Phytophthora infestans, in Solanum lycopersicum, 72 h, read-out: % efficacy"}, "Pyrenophora teres": {"test_system": "Pyrenophora teres", "assay": "Pyrenophora teres test (barley)/curative", "conditions": "application rate 6.25 g/ha, curative, 7 days after inoculation", "method": "as §1, §2, §3\nas §8, with “Pyrenophora teres.” for “Puccinia recondita.”\nThe plants are placed in a greenhouse at a temperature of about 20° C. and a relative atmospheric humidity of about 80%.\nas §7"}, "Rhizoctonia solani": {"test_system": "Rhizoctonia solani", "assay": "Rhizoctonia solani test (cotton)/seed treatment", "conditions": "application rate 75 mg/kg of seed, dry seed dressing, after 8 days", "method": "The active compounds are applied as dry seed dressing. This is prepared by extending the respective active compound with ground mineral to give a finely pulverulent mixture which ensures uniform distribution on the seed surface.\nTo dress the seed, the infected seed together with the seed dressing is shaken for 3 minutes in a sealed glass flask.\n2×50 corns of seed are sown at a depth of 2 cm into standard soil which is infected with Rhizoctonia solani, and the seeds are cultivated in a greenhouse at a temperature of about 22° C. in seed trays which receive a light regimen of 15 hours per day.\nEvaluation is carried out after 8 days. 0% means an efficacy which corresponds to that of the untreated control, while an efficacy of 100% means that no disease is observed."}, "Leptosphaeria nodorum [7]": {"test_system": "Leptosphaeria nodorum", "assay": "Leptosphaeria nodorum test (wheat)/curative", "conditions": "curative, 10 days after inoculation", "method": "as §1, §2, §3\nas §8, with “Leptosphaeria nodorum.” for “Puccinia recondita.”, “hours and” for “hours. The plants”, “then” for “subsequently”\nThe plants are placed in a greenhouse at a temperature of about 15° C. and a relative atmospheric humidity of about 80%.\nas §5"}, "Fusarium nivale": {"test_system": "Fusarium nivale", "assay": "Fusarium nivale test (triticale)/seed treatment", "conditions": "dry seed dressing, about 3 weeks after sowing", "quoted_text": "About 3 weeks after sowing, the plants are evaluated for symptoms of snow mould."}, "Botrytis cinerea": {"test_system": "Botrytis cinerea", "assay": "Botrytis test (beans)/protective", "conditions": "48 h, application rate 50 g/ha, protective, two days after inoculation, read-out: % efficacy", "method": "To test for protective activity, young plants are sprayed with the commercial active compound preparation at the stated application rate. After the spray coating has dried on, 2 small pieces of agar covered with Botrytis cinerea are placed on each leaf. The inoculated plants are placed in a darkened chamber at about 20° C. and 100% relative atmospheric humidity.\nTwo days after the inoculation, the size of the infected spots on the leaves is evaluated. 0% means an efficacy corresponding to that of the control, and an efficacy of 100% means that no infection is observed."}}, "data": [{"smiles": "CON=C(C1=NOCCO1)c1ccccc1Oc1ncnc(Oc2ccccc2Cl)c1F", "note": "[(I)]", "values": [{"measurement": "pest or weed control at 6.25 g/ha", "setting": "Leptosphaeria nodorum [1]", "value": 25, "unit": "%"}, {"measurement": "Efficacy in %", "setting": "[2]; application rate 6.25 g/ha", "value": 0, "unit": "%"}, {"measurement": "Efficacy in %", "setting": "[2]; application rate 12.5 g/ha", "value": 33, "unit": "%"}, {"measurement": "Efficacy in %", "setting": "[2]; application rate 25 g/ha", "value": 75, "unit": "%"}, {"measurement": "pest or weed control at 6.25 g/ha", "setting": "Puccinia recondita [3]", "value": 81, "unit": "%"}, {"measurement": "Efficacy in %", "setting": "[4]; application rate 6.25 g/ha", "value": 0, "unit": "%"}, {"measurement": "Efficacy in %", "setting": "[4]; application rate 12.5 g/ha", "value": 29, "unit": "%"}, {"measurement": "Efficacy in %", "setting": "[4]; application rate 25 g/ha", "value": 79, "unit": "%"}, {"measurement": "Efficacy in %", "setting": "[5]; application rate 6.25 g/ha", "value": 0, "unit": "%"}, {"measurement": "Efficacy in %", "setting": "[5]; application rate 25 g/ha", "value": 33, "unit": "%"}, {"measurement": "Emax at 2.5 g/ha", "setting": "Sphaerotheca fuliginea", "value": 22, "unit": "%"}, {"measurement": "Efficacy in %", "setting": "Puccinia recondita [6]", "value": 67, "unit": "%"}, {"measurement": "Emax at 0.5 g/ha", "setting": "Phytophthora infestans", "value": 9, "unit": "%"}, {"measurement": "Emax at 1 g/ha", "setting": "Phytophthora infestans", "value": 20, "unit": "%"}, {"measurement": "Emax at 5 g/ha", "setting": "Phytophthora infestans", "value": 45, "unit": "%"}, {"measurement": "Efficacy in %", "setting": "Pyrenophora teres", "value": 0, "unit": "%"}, {"measurement": "Efficacy in %", "setting": "Rhizoctonia solani", "value": 16, "unit": "%"}, {"measurement": "Efficacy in %", "setting": "Leptosphaeria nodorum [7]; application rate 6.25 g/ha", "value": 62, "unit": "%"}, {"measurement": "Efficacy in %", "setting": "Leptosphaeria nodorum [7]; application rate 12.5 g/ha", "value": 62, "unit": "%"}, {"measurement": "Efficacy in %", "setting": "Fusarium nivale; application rate 25 mg/kg of seed", "value": 89, "unit": "%"}, {"measurement": "Efficacy in %", "setting": "Fusarium nivale; application rate 75 mg/kg of seed", "value": 93, "unit": "%"}, {"measurement": "Emax at 50 g/ha", "setting": "Botrytis cinerea", "value": 15, "unit": "%"}]}]}
